In BindingDB's records for doi:10.1016/j.ejmech.2021.113895 (University of Pisa, 2021):

Assay: Inhibition of recombinant full length human His-tagged PDK1 expressed in Baculovirus expression system in presence of ATP measured by […]

In order of falling IC50:
1. O=C(CCCNC(=O)c1cccn(Cc2ccc(F)c(F)c2)c1=O)Nc1ccc2c(c1)C(=Cc1cccs1)C(=O)N2 [US10351548, Compound DF9]  5880 nM
2. O=C(CCNC(=O)c1cccn(Cc2ccc(F)c(F)c2)c1=O)Nc1ccc2c(c1)C(=Cc1cccs1)C(=O)N2  1340 nM
3. Cc1c(Br)cc(C(=O)N[C@@H](C(=O)Nc2ccc3c(c2)/C(=C/c2cnc[nH]2)C(=O)N3)c2ccccc2)c(=O)n1Cc1ccc(F)c(F)c1  475 nM
4. O=C(CCNC(=O)c1cccn(Cc2ccc(F)c(F)c2)c1=O)Nc1ccc2c(c1)/C(=C/c1ncc[nH]1)C(=O)N2  455 nM
5. O=C(CCCNC(=O)c1cccn(Cc2ccc(F)c(F)c2)c1=O)Nc1ccc2c(c1)/C(=C/c1cnc[nH]1)C(=O)N2 [US10351548, Compound DF8]  245 nM
6. Cc1ccc(C(=O)N[C@@H](C(=O)Nc2ccc3c(c2)/C(=C/c2cnc[nH]2)C(=O)N3)c2ccccc2)c(=O)n1Cc1ccc(F)c(F)c1  148 nM
7. Cc1c(Br)cc(C(=O)NCC(=O)Nc2ccc3c(c2)/C(=C/c2cnc[nH]2)C(=O)N3)c(=O)n1Cc1ccc(F)c(F)c1  134 nM
8. Cc1ccc(C(=O)NCC(=O)Nc2ccc3c(c2)/C(=C/c2cnc[nH]2)C(=O)N3)c(=O)n1Cc1ccc(F)c(F)c1  103 nM
9. O=C(CCNC(=O)c1cccn(Cc2ccc(F)c(F)c2)c1=O)Nc1ccc2c(c1)/C(=C/c1cnc[nH]1)C(=O)N2 [US10351548, Compound DD21]  103 nM
